Each structure is given as a SMILES string. Bounds are passed on as bounds.

`CC(C)(C)OC(=O)NCc1ccc(CC(=O)Nc2ccc(Nc3cc(-c4cccc5c4oc4ccccc45)ncn3)cc2)cc1`: the melting point (in general, the temperature, or range, at which the solid turns liquid) lay within 238 to 240 °C.
The figure for `COC(=O)c1snnc1C1CC1` is 47 °C.
The figure for `CCCCCCc1cc2c(cc1/C=C/c1ccc(C(=O)O)cc1)C(C)(C)CCC2(C)C` is 134 to 136 °C; for `CCCc1nc(Br)c(C(=O)O)n1Cc1ccc(-c2ccccc2S(=O)(=O)NC(=O)NCc2ccccc2)cc1` it is 128 °C; for `CC(=O)OC1CSC(Oc2cncc(Br)c2)C(OC(C)=O)C1OC(C)=O` (stereo not drawn) it is 174 °C.
The figure for `CCCc1nc(C(=O)CC)c(C#N)n1C(c1ccccc1)(c1ccccc1)c1ccccc1` is 96 °C; for `CCOc1cc(OCC)nc(-c2ccc(C=O)cc2)n1` it is 87 to 88 °C; for `CCCSc1ncc(C(C)C(=O)O)n1Cc1ccccc1Cl` (stereo not drawn) it is 170 to 172 °C.
With `Cc1cc(C)nc(NC(=O)NS(=O)(=O)c2ccccc2OCCO)n1`, the melting point lay within 183 to 190 °C.
As to `Cc1ccc(-n2nc(OC(=O)c3ccccc3)c3c(c2=O)Cc2ccc(Cl)cc2N3)cc1`, the melting point lay within 248 to 250 °C.
The figure for `Brc1cccc2[nH]c(-c3ccccc3)c(CCN3CCCCC3)c12` is above 230 °C; for `CNC(=NC#N)NCCCCc1csc(NC(=N)N)n1` it is 165 to 168 °C.
The figure for `COc1ccc(-c2nc(C(=O)Cl)c(C)o2)cc1` is 89 °C; for `COc1ccc(-n2c3c(c(=O)c4cccnc42)CC(C)O3)cc1` (stereo not drawn) it is 194 to 196 °C.
The figure for `CC(C)(C)OC(=O)NC(Cc1ccccc1)C(O)C(O)C(Cc1ccccc1)NC(=O)OC(C)(C)C` (stereo not drawn) is 208 to 212 °C; for `O=C(Nc1ccc(OCCN2CCOCC2)c2ccccc12)c1cccc(Br)c1` it is 90 to 93 °C.
Molecule `Cn1cc(C=O)c(=O)c2cc(C(F)(F)F)ccc21` displayed a melting point of 205 °C.
The figure for `Cc1oc2c(-n3c(=O)cc(C(F)(F)F)n(C)c3=O)c(F)cc(Cl)c2c1C=O` is 148 to 150 °C; for `NC(=O)C1CN(Cc2ccccc2)CCN1` (stereo not drawn) it is 168 °C.
The figure for `O=C(O)/C=C/c1cccc(OS(=O)(=O)C(F)(F)F)c1` is 107 °C; for `COc1cccc(SC2CC(=O)N2)c1` (stereo not drawn) it is 55 to 56 °C; for `CCOC(=O)CSc1ccc([N+](=O)[O-])cc1` it is 43 to 45 °C.
The figure for `COc1cccc(COc2ccc3c(c2)C=C(C(=O)O)CCS3(=O)=O)c1` is 220 to 222 °C.
`CN(C)c1ccc(N2CCN(Cc3c[nH]c4ncccc34)CC2)cc1` returned a melting point of 199 to 201 °C.
The figure for `Cc1nc(-c2ccc(-c3cc(C(F)(F)F)nn3-c3ccc(S(C)(=O)=O)c(F)c3)cc2)cs1` is 139 to 141 °C; for `C=Cc1ccc(C2=CC(=O)NC2=O)cc1` it is 124 to 127 °C.
The figure for `COc1ccc(O)c(CC=Cc2ccccc2C#N)c1` is 72 to 74 °C; for `OCc1cccc2cc(Br)ccc12` it is 72 to 75 °C.
The figure for `Nc1nc(Cl)nc2c1ncn2[C@@H]1S[C@H](CO)[C@@H](O)[C@H]1O` is 220 to 222 °C; for `COc1ccc(/C(=C/C=C/C(=O)Oc2ccc([N+](=O)[O-])cc2)c2cccs2)cc1` it is 113 to 115 °C.
Take `O=C(Nc1ccc(Cl)c(Cl)c1)OCCCC(O)c1ccccc1` (stereo not drawn): the melting point was in the range of 86 to 89 °C.
The figure for `Cc1ccc(-c2ccc(S(C)(=O)=O)cc2)n1-c1ccc(-c2ccc[nH]2)cc1` is 225 to 227 °C.
With `COC(=O)CCc1conc1-c1ccc(Cl)c(Cl)c1`, the melting point was in the range of 87 to 88 °C.
The molecule `CCCN(Sc1nc2ccccc2s1)C(C)(C)C` returned a melting point of 55 to 56 °C.
The figure for `COc1cc(Cc2sc3ccccc3c2S(=O)(=O)Nc2onc(C)c2Br)cc(OC)c1OC` is 154 to 156 °C; for `O=C(O)c1cc(F)cc(-c2cccc3cc(Cc4cccc(C(F)(F)F)c4)sc23)c1` it is 140 to 142 °C; for `Fc1ccc(CSc2nnc(-c3ccc4c(c3)CCO4)o2)cc1F` it is 138 to 139 °C.
The figure for `O=[N+]([O-])c1ccc2sc(CCl)cc2c1` is 110 to 112 °C.
The figure for `CC(C)[C@H](S)C(=O)NC(C)(C)C(=O)N[C@@H](Cc1ccc(O)cc1)C(=O)O` is 180 to 181 °C; for `Cc1ccc(Cn2c(=O)cc(C(C)C(=O)Oc3ccccc3)c3cc(C)ccc32)cc1` (stereo not drawn) it is 111 to 113 °C.
`N#Cc1ccc(C(=O)Nc2cc(C(=O)NCc3ccccc3)ccn2)cc1` registered a melting point of 180 to 181 °C.
The figure for `CCOC(=O)c1ccc(OCc2ccc(Cl)cc2)cc1` is 83 to 84 °C; for `CN1CCN(c2nn(S(=O)(=O)c3ccccc3)c3ccc(Br)cc23)CC1` it is 135 to 137 °C.
The figure for `NC(CO)(CO)C(=O)O` is 109 to 112 °C.
The figure for `COc1ccc2c(=O)nc(-c3cccc(CCC(=O)OC(C)(C)C)n3)sc2c1` is 134 to 135 °C; for `CC(=NO)c1ccc2c(c1)C(=NNc1cccc(S(N)(=O)=O)c1C)C(=O)N2` it is above 250 °C.
`CCCCCc1scc(C(=O)OC)c1NC1=CC(=O)N(CCC)C1` registered a melting point above 285 °C.
`CCN1C(=O)C(C(=O)Nc2ccc(F)cc2F)c2cc(C3(C)OCCO3)ccc21` (stereo not drawn) came in with a melting point of 166 to 170 °C.
The figure for `CCCc1nn(-c2ccc(C(F)(F)F)cn2)cc1CCCOc1cc(CC(=O)O)ccc1OC` is 124 to 126 °C.
The figure for `COc1ccc2c(c1)C(=O)N(CCN(C)CCN1C(=O)c3ccccc3C(C)(C)C1=O)C(=O)C2(C)C` is 155 to 156 °C; for `C[C@H](NC(=O)c1c[nH]c2ncc(-c3cccs3)nc12)C(C)(C)C` it is 311 to 312 °C; for `Cc1cc(C)c2c(O)c3c(=O)[nH][nH]c(=O)c3nc2c1` it is above 395 °C.
The figure for `COC(=O)c1[nH]c2cccc3c2c1CCNC3=O` is 266 to 267 °C.
Consider `Cc1cc(Cc2cc3cc(C(F)(F)F)ccc3n2S(=O)(=O)c2cccc(C(C)(C)C)c2)c(F)cc1C(=O)O`, for which the melting point was 195 °C.
For the molecule `C#Cc1cccc(-c2cccc([N+](=O)[O-])c2-c2cc(C#C)ccn2)c1`, the melting point was in the range of 130 to 132 °C.
The figure for `COc1ccc(Cn2cnc3c(-c4ccco4)nc(N(C(C)=O)C(C)=O)nc32)cc1` is 167 to 168 °C; for `O=C(c1cc2cc3oc(=O)[nH]c3cc2o1)N1CCC(Cc2ccccc2)CC1` it is 205 to 210 °C; for `NC(=O)c1nn(-c2ccc(S(N)(=O)=O)cc2)c2ccncc12` it is 301 to 302 °C.
The figure for `COc1ccc(-n2c(=O)cc(C)c3c(=O)n(-c4ccccc4)[nH]c32)cc1` is 189 to 190 °C; for `O=S(=O)(Cc1n[nH]c(-c2cccs2)n1)c1ccccc1` it is 191 to 193 °C; for `CN1CCN(c2cccc3c2C[C@H](NC(=O)c2ccc(Br)cc2)CC3)CC1` it is 200 to 201 °C.
With `COC(=O)c1ccc2[nH]nnc2c1C(=O)OC`, the melting point is 147 to 150 °C.
Molecule `CCc1nn(C)c(NC(=O)Cc2ccc(Br)cc2)c1Cl` had a melting point of 167 to 168 °C.

Source of the values: a melting point compilation (Tetko et al.; mined from patent text by program, amines drawn as free bases though some values may be those of a salt).
